Results: patent US12037350B2, “Compositions and methods for the prevention and/or treatment of mitochondrial disease, including Friedreich's ataxia” (Stealth BioTherapeutics Inc., priority 2020, dated 2024)
pEC50: −log10 of the molar value. “Also recorded” adds a separate entry of the source.

Tests used:
[1] = test system: HepG2 human hepatocarcinoma cells; experiment: Rotenone ATP Assay (Complex I by-pass assay); assay type: cell-based
Description: Example 13: Rotenone ATP Assay (a Complex I by-Pass Assay)
This assay has been adapted from Haefeli R H, Erb M, Gemperli A C, Robay D, Courdier Fruh I, et al. (2011) NQO1-Dependent Redox Cycling of Idebenone: Effects on Cellular Redox Potential and Energy Levels. PLoS ONE 6(3): e17963. HepG2 human hepatocarcinoma cells are co-incubated with the electron transport chain complex I toxin rotenone +/− compounds of interest and the corresponding effect on ATP synthesis is measured with a bioluminescent substrate.
The stock solutions of the test articles (See Table 1, below for a list of the test articles examined using this assay) were prepared in dimethyl sulfoxide (DMSO at 10 mM). Working stock solutions were prepared on the day of the experiment in glucose free, serum free Dulbecco's modified Eagles medium (DMEM) supplemented with 50 micromolar rotenone.
In brief, HepG2 cells were plated at 25,000 cells per well in low glucose (1 gram/Liter) DMEM medium+10% fetal calf serum and incubated for 24 hours. The following day, the media was decanted and subsequently replaced with glucose free/serum free DMEM which has been supplemented with 50 micromolar rotenone and compound of interest. Serial dilutions of compound were prepared in 3× dilutions beginning at 25 micromolar. The cells were incubated for 60 minutes in a humidified tissue culture incubator. Following incubation, ATP levels were quantified via bioluminescent assay (Promega […] Glo Assay kit) and readings were captured on a standard microplate reader.
ATP bioluminescence is plotted versus the log of compound of interest and data are used to generate EC50 values. Curve fitting is performed using a sigmoidal dose response curve fit function (GraphPad Prism software).
EC50 values were derived from seven-point dose response curves performed on n=3 technical replicates per dose. Robustness of curve fit was assessed as a quality control measure, with an R squared value of at least 0.80 being required for a successful curve fit. Compounds of interest showing an increase in ATP bioluminescence relative to vehicle control were verified in an independent biological replicate of n=3 technical replicates per dose.
This assay is a direct measure of the ability of compounds of interest to restore ATP production under conditions of inhibition of Complex I of the mitochondrial electron transport chain. As the majority of ATP produced via the electron transport chain is thought to derive from Complex I activity, significant impairment in Complex I function has dire biological consequences. Of note, Complex I mutations are thought to drive pathophysiology in multiple mitochondrial diseases, including Leigh syndrome and Leber's Hereditary Optic Neuropathy (LHON), while diminished Complex I activity and the resultant attenuation of ATP production has been shown in neurodegenerative diseases, including Friedreich's Ataxia, Parkinson's Disease and Huntington's Disease. In brief, most compounds were tested in the Rotenone Oxygraph Assay instead of this assay but only Idebenone was active amongst Omaveloxolone, Idebenone and Vatiquinone.

[2] = test system: GM03665 cells (fibroblasts from a subject with Friedreich's ataxia); experiment: RSL-3 Toxicity Assay (RSL-3 Assay); assay type: cell-based, human; details: for pEC50: Homo sapiens, Fibroblast
Source text: Example 14: RSL-3 Toxicity Assay (RSL-3 Assay)
This assay has been adapted from: Hinman, A., Holst, C. R., Latham, J. C., Bruegger, J. J., Ulas, G., McCusker, K. P., Amagata, A., Davis, D., Hoff, K. G., Kahn-Kirby, A. H., Kim, V., Kosaka, Y., Lee, E., Malone, S. A., Mei, J. J., Richards, S. J., Rivera, V., Miller, G., Trimmer, J. K., Shrader, W. D., “Vitamin E hydroquinone is an endogenous regulator of ferroptosis via redox control of 15-lipoxygenase”, (2018) PLoS ONE 13(8): e0201369.
In brief, GM03665 cells (Coriell Institute) were seeded in 96-well plates (Sarstedt) in DMEM cell culture media containing 10% Fetal Bovine serum and 1% Penicillin-Streptomycin (Pen-Strep) antibiotic mix at the amount of 2×10^4/mL (100 μL or 2×10^3 cells per well). Cells were left to rest overnight at 37° C. in a humidified atmosphere with 5% CO2 to allow attachment of the cells to the culture plate. Test compounds were prepared as DMSO stocks (10 mM) and were serially diluted in cell culture media to obtain 2× working solutions. Cell media was discarded and replaced by 50 μL of test compound solutions or cell media with vehicle for control wells. Within 15 minutes, 2× working solution (4 μM) of 1S,3R-RSL-3 (CAS #1219810-16-8, Sigma-Aldrich) (diluted from 5 mM DMSO stock in cell culture media) was added. Final reaction volume was 100 μL and final DMSO concentration in reaction was kept below 0.2% (v/v) and equal in all wells. Final RSL-3 concentration was 2 μM and test compound final concentrations in reaction were up to 1000 nM. After 24 hours of incubation cell viability was assessed by MTT test. MTT (Sigma-Aldrich) solution 1 mg/mL in IX PBS (pH=7.4) was prepared 1 hour before the assay and filtered through Filtropur S 0.2 filters (Sarstedt). Cell media with test compounds was discarded and 100 μL of MTT solution was added to cells. The plates were incubated for 2 hours at +37° C. Thereafter, the MTT solution was removed and 100 μL of isopropanol was added to dissolve sediment. Absorption at 570 and 650 nm was measured using Hidex Sense microplate reader.
Compounds A and B and idebenone were not examined in this assay. The data presented in Table 1 indicates omaveloxolone was not active in this assay but that vatiquinone was active.
Discussion—Both BSO and RSL-3 are frequently utilized to induce the regulated cell death pathway known as ferroptosis. Ferroptosis is thought to require the joint activity of iron catalyzed oxidative stress and lipid peroxidation and has been described in cell and animal models of multiple neurodegenerative diseases, including Friedreich's Ataxia, Huntington Disease, Parkinson Disease and Alzheimer's Disease. […] Of note, the results for Compounds C-I and K were favorable with respect to inhibition of ferroptotic cell death when either BSO or RSL3 were used as initiating stimulus, differentiating these compounds from omaveloxolone and idebenone.

[3] = GM03665 cells, RSL-3 2 μM, 24 hours, MTT

SMILES | Complex I by-pass activity in Rotenone ATP Assay (in words) [1] | ATP Rotenone Assay EC50 ([1]; HepG2, 50 micromolar rotenone, 60 minutes, ATP bioluminescence) | protection against RSL-3 toxicity (in words) [2] | RSL-3 Assay EC50 [2, 3] | pEC50 [2, 3] | pEC50 ([1]; Homo sapiens, 1 h, HepG2, 50 micromolar rotenone, 60 minutes, ATP bioluminescence)
CC1(C)CC[C@]2(NC(=O)C(C)(F)F)CC[C@]3(C)[C@H](C(=O)C=C4[C@@]5(C)C=C(C#N)C(=O)C(C)(C)[C@@H]5CC[C@]43C)[C@@H]2C1 [Omaveloxolone, reference compound] | inactive | Inactive | not active | Inactive |  | 
COC1=C(OC)C(=O)C(CCCCF)=C(C)C1=O [Compound J, 2-(4-fluorobutyl)-5,6-dimethoxy-3-methylcyclohexa-2,5-diene-1,4-dione] | not that effective |  | essentially inactive |  | < 6.00 | 
COC1=C(OC)C(=O)C(CCCCCCCCCC(F)(F)F)=C(C)C1=O [Compound C, 2,3-dimethoxy-5-methyl-6-(10,10,10-trifluorodecyl)cyclohexa-2,5-diene-1,4-dione] | effective in rescuing cells; also recorded: comparable to that of Idebenone |  |  |  | 6.96 | 5.84
